Results taken from US20230021448A1, “COMPOUNDS AND COMPOSITIONS FOR TREATING CONDITIONS ASSOCIATED WITH STING ACTIVITY” (IFM Due, Inc., priority 2019, published 2023).

Biological target: T1, STING (Homo sapiens, UniProt Q86WV6, G230A/H232R/R293Q/R71H)
T1 construct: host or cells: THP1-Dual KO-IFNAR2 cells
Experiment: STING reporter assay: luciferase reporter activity in THP1-Dual KO-IFNAR2 cells stimulated with 2'3'cGAMP
Assay type: cell-based
Details: 2′3′cGAMP 15 μM final, 24h, read-out: hSTING: EC50
Procedure: STING pathway activation by the compounds described herein was measured using THIP1-Dua1™ cells (KO-IFNAR2).
TTIP1-Dual™ KO-IFNAR2 Cells (obtained from invivogen) were maintained in RPMI, 10% FCS, 5 ml P/S, 2 mM L-glut, 10 mM Hepes, and 1 mM sodium pyruvate. Compounds were spotted in empty 384 well tissue culture plates (Greiner 781182) by Echo for a final concentration of 0.0017-100 μM. Cells were plated into the TC plates at 40 μL per well, 2×10E6 cells/mL. For activation with STING ligand, 2′3′cGAMP (MW 718.38, obtained from Invivogen), was prepared in Optimem media.
The following solutions were prepared for each 1×384 plate: • Solution A: 2 mL Optimem with one of the following stimuli: • […] • Solution B: 2 mL Optimem with 60 μL Lipofectamine 2000->Incubate 5 min at RT
2 mL of solution A and 2 ml Solution B was mixed and incubated for 20 min at room temperature (RT). 20 uL of transfection solution (A+B) was added on top of the plated cells, with a final 2′3′cGAMP concentration of 15 μM. The plates were then centrifuged immediately at 340 g for 1 minute, after which they were incubated at 37° C., 5% C02, >98% humidity for 24h. Luciferase reporter activity was then measured. EC50 values were calculated by using standard methods known in the art.
Luciferase reporter assay: 10 μL of supernatant from the assay was transferred to white 384-plate with flat bottom and squared wells. One pouch of QUANTI-Luc™ Plus was dissolved in 25 mL of water. 100 μL of QLC Stabilizer per 25 mL of QUANTI-Luc™ Plus solution was added. 50 μL of QUANTI-Luc™ Plus/QLC solution per well was then added. Luminescence was measured on a Platereader (e.g., Spectramax I3X (Molecular Devices GF3637001)).
Luciferase reporter activity was then measured. EC50 values were calculated by using standard methods known in the art.

T1 sequence (Q86WV6 whole entry R71H/G230A/H232R/R293Q): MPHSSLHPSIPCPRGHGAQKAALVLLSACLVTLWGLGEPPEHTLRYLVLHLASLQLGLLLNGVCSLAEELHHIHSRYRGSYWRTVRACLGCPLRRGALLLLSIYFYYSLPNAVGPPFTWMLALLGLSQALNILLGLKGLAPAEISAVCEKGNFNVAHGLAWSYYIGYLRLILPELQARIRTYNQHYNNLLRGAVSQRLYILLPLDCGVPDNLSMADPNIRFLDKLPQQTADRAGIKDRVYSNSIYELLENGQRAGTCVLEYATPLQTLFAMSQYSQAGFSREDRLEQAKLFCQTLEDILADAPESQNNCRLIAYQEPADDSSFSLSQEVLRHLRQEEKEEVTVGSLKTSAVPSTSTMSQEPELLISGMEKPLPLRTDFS

SMILES | EC50 [nM]
O=C(Nc1c[nH]c2cc(F)c(F)cc12)C(=O)N[C@@H]1CCC[C@H](Oc2ccc(C(F)(F)F)cc2)C1 (single isomer, unassigned) [Compound 220] | 200 to 1000
O=C(Nc1c[nH]c2cc(F)c(F)cc12)C(=O)N[C@H]1CCC[C@H](Oc2ccc(C(F)(F)F)cc2)C1 (single isomer, unassigned) [Compound 227] | 40 to 200
O=C(Nc1c[nH]c2cc(F)c(F)cc12)C(=O)N[C@@H]1CCC[C@@H](Oc2ccc(C(F)(F)F)cc2)C1 (single isomer, unassigned) [Compound 228] | 200 to 1000
CCC(NC(=O)C(=O)Nc1c[nH]c2cc(F)c(F)cc12)c1cccc(C(F)(F)F)c1 (single isomer, unassigned) [Compound 235] | 200 to 1000
CCC(NC(=O)C(=O)Nc1c[nH]c2cc(F)c(F)cc12)c1cccc(C(F)(F)F)c1 (single isomer, unassigned) [Compound 236] | 200 to 1000
O=C(Nc1c[nH]c2cc(F)c(F)cc12)C(=O)NC(c1ccccc1)C(F)(F)F (single isomer, unassigned) [Compound 239, N-(5,6-difluoro-1H-indol-3-yl)-N′-(2,2,2-trifluoro-1-phenylethyl)oxalamide] | 200 to 1000
O=C(Nc1c[nH]c2cc(F)c(F)cc12)C(=O)NC(c1ccccc1)C(F)(F)F (single isomer, unassigned) [Compound 240, N-(5,6-difluoro-1H-indol-3-yl)-N′-(2,2,2-trifluoro-1-phenylethyl)oxalamide] | 200 to 1000
O=C(Nc1c[nH]c2cc(F)c(F)cc12)C(=O)NC1CCOC2(CCCC2)C1 (single isomer, unassigned) [Compound 243] | 1000 to 5000
O=C(Nc1c[nH]c2cc(F)c(F)cc12)C(=O)NC1CCOC2(CCCC2)C1 (single isomer, unassigned) [Compound 244] | 1000 to 5000
O=C(Nc1c[nH]c2cc(F)c(F)cc12)C(=O)NC1CCC2(CCCC2)C1 (single isomer, unassigned) [Compound 245] | 200 to 1000
O=C(Nc1c[nH]c2cc(F)c(F)cc12)C(=O)NC1CCC2(CCCC2)C1 (single isomer, unassigned) [Compound 246] | 200 to 1000
O=C(Nc1c[nH]c2cc(F)c(F)cc12)C(=O)NC1CCC2(CCCCC2)C1 (single isomer, unassigned) [Compound 247] | 200 to 1000
O=C(Nc1c[nH]c2cc(F)c(F)cc12)C(=O)NC1CCCC2(CCCCC2)C1 (single isomer, unassigned) [Compound 257] | 200 to 1000
O=C(Nc1c[nH]c2cc(F)c(F)cc12)C(=O)NC1CCCC2(CCCCC2)C1 (single isomer, unassigned) [Compound 258] | 200 to 1000
CC(NC(=O)C(=O)Nc1c[nH]c2cc(F)c(F)cc12)c1cc(C(F)(F)F)c(Cl)cn1 (single isomer, unassigned) [Compound 260] | 1000 to 5000
CC(CN(C)c1ccccc1)NC(=O)C(=O)Nc1c[nH]c2cc(F)c(F)cc12 (single isomer, unassigned) [Compound 320] | 200 to 1000
CC(NC(=O)C(=O)Nc1c[nH]c2cc(F)c(F)cc12)c1ccc(C(F)(F)F)cc1 (single isomer, unassigned) [Compound 330] | 40 to 200
O=C(NCC(c1ccccc1)C(F)F)C(=O)Nc1c[nH]c2cc(F)c(F)cc12 (single isomer, unassigned) [Compound 347] | 200 to 1000
O=C(Nc1c[nH]c2cc(F)c(F)cc12)C(=O)N[C@@H]1CCC2(CCCCC2)C1 (stereo in doubt) [Compound 248] | 40 to 200
C[C@H](NC(=O)C(=O)Nc1c[nH]c2cc(F)c(F)cc12)c1cc(C(F)(F)F)c(Cl)cn1 (stereo in doubt) [Compound 259] | 40 to 200
C[C@@H](CN(C)c1ccccc1)NC(=O)C(=O)Nc1c[nH]c2cc(F)c(F)cc12 (stereo in doubt) [Compound 319] | 200 to 1000
C[C@H](NC(=O)C(=O)Nc1c[nH]c2cc(F)c(F)cc12)c1ccc(C(F)(F)F)cc1 (stereo in doubt) [Compound 329] | 40 to 200
O=C(Nc1ccc(C(F)(F)F)cn1)C(=O)Nc1c[nH]c2cc(F)c(F)cc12 [Compound 101] | 200 to 1000

SMILES | EC50 [nM]
O=C(Nc1cccc(C(F)(F)F)c1)C(=O)Nc1c[nH]c2cc(F)c(F)cc12 [Compound 102] | 200 to 1000
Cc1cc(NC(=O)C(=O)Nc2c[nH]c3cc(F)c(F)cc23)cc(C(F)(F)F)c1 [Compound 103, N^1-(5,6-difluoro-1H-indol-3-yl)-N^2-(3-methyl-5-(trifluoromethyl)phenyl)oxalamide] | 40 to 200
O=C(Nc1ccc(C2CCCCC2)nc1)C(=O)Nc1c[nH]c2cc(F)c(F)cc12 [Compound 104] | 200 to 1000
O=C(Nc1ccc(C2CCOCC2)cc1)C(=O)Nc1c[nH]c2cc(F)c(F)cc12 [Compound 105] | 40 to 200
Cc1ccc(CNC(=O)C(=O)Nc2c[nH]c3cc(F)c(F)cc23)cc1C(F)(F)F [Compound 107] | 40 to 200
O=C(NCc1ccc(-c2ccccc2C(F)(F)F)cc1)C(=O)Nc1c[nH]c2cc(F)c(F)cc12 [Compound 108] | 200 to 1000
O=C(Nc1c[nH]c2cc(F)c(F)cc12)C(=O)NC1CCC2(CCCCC2)CC1 [Compound 109] | 200 to 1000
O=C(NCCC1CCC(F)(F)CC1)C(=O)Nc1c[nH]c2cc(F)c(F)cc12 [Compound 110] | 200 to 1000
O=C(NCC1CC2C=CC1C2)C(=O)Nc1c[nH]c2cc(F)c(F)cc12 (stereo not drawn) [Compound 111] | 200 to 1000
O=C(NCC12CC3CC(CC(C3)C1)C2)C(=O)Nc1c[nH]c2cc(F)c(F)cc12 [Compound 112] | 1000 to 5000
CCC1CCC(NC(=O)C(=O)Nc2c[nH]c3cc(F)c(F)cc23)CC1 (stereo not drawn) [Compound 113] | 200 to 1000
CN(C(=O)C(=O)Nc1c[nH]c2cc(F)c(F)cc12)c1ccc(C(F)(F)F)cc1 [Compound 114] | 1000 to 5000
O=C(Nc1ccc(C(F)(F)F)cc1)C(=O)Nc1c[nH]c2cc(F)c(F)cc12 [Compound 115, N1-(5,6-difluoro-1H-indol-3-yl)-N2-(4-(trifluoromethyl)phenyl) oxalamide] | 40 to 200
O=C(Nc1ccc(C(F)(F)F)cc1)C(=O)Nc1c[nH]c2ccccc12 [Compound 116, N1-(1H-indol-3-yl)-N2-(4-(trifluoromethyl)phenyl)oxalamide] | 200 to 1000
CCC1CCN(C(=O)C(=O)Nc2c[nH]c3cc(F)c(F)cc23)CC1 [Compound 117] | 1000 to 5000
O=C(NCCC1CCCCC1)C(=O)Nc1c[nH]c2cc(F)c(F)cc12 [Compound 118] | 40 to 200
O=C(NCc1ccc(C(F)(F)F)cn1)C(=O)Nc1c[nH]c2cc(F)c(F)cc12 [Compound 119, N-(5,6-difluoro-1H-indol-3-yl)-N′-[[5-(trifluoromethyl)pyridin-2-yl]methyl]ethanediamide] | 40 to 200
O=C(Nc1c[nH]c2cc(F)c(F)cc12)C(=O)NC1CCC(Cc2ccccc2)CC1 (stereo not drawn) [Compound 122] | 200 to 1000
O=C(NCc1ccc(C(F)(F)F)c(Cl)c1)C(=O)Nc1c[nH]c2cc(F)c(F)cc12 [Compound 123] | 40 to 200
Cc1ccc(CNC(=O)C(=O)Nc2c[nH]c3ccc(Br)cc23)cc1C(F)(F)F [Compound 124] | 200 to 1000
CC(C)(NC(=O)C(=O)Nc1c[nH]c2cc(F)c(F)cc12)c1ccc(C(F)(F)F)cc1 [Compound 125] | 200 to 1000
O=C(NCc1cc(C(F)(F)F)ccn1)C(=O)Nc1c[nH]c2cc(F)c(F)cc12 [Compound 126] | 40 to 200
